The record followed here is patent US9540343B2 (Gilead Sciences, Inc., priority 2011, dated 2017).

As a reminder, the % inhibition is the drop in the measured response relative to a control, in per cent. By CC50 is commonly meant the concentration at which the toxic effect on the cells reaches its halfway point. Low values mean greater toxicity to the cells, high ones lower toxicity to the cells. By inhibition is commonly meant the drop in the measured response relative to a control, in per cent.

In one series the test system is HIV-IIIb. The experiment in a line: Test A: Antiviral assay in MT4 cells. It counts as cell-based, HIV-1. The conditions noted are these: MT-4 cells infected with HIV-IIIb, 5 days, CellTiter-Glo; for % inhibition at 2 μM: percent inhibition of virus-induced cell killing, from dose response curve at 2 uM drug; for inhibition at 2 µM: Human immunodeficiency virus 1, IIIB, MT4, 120 h, read-out: % inhibition at 2 μM, percent inhibition of virus-induced cell killing, from dose response curve at 2 uM drug. On the technique in general: ATP-based viability assays read luminescence as a measure of living cells.

For the next series, the system named is MT-4 cells. The experiment in a line: in vitro. Conditions: uninfected MT-4 cells, same protocol as Test A, 5 days, CellTiter-Glo. A digest of the protocol:
(§1)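 Cytoprotection read-out: CellTiter-Glo chemiluminescence after 5 days at 37 °C of HIV-IIIb-infected MT-4 cells (m.o.i. 0.003) with compound in 10-point 3-fold dilutions, quadruplicate, 10% FBS. Cytotoxicity (CC50) measured identically without virus.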

The nature of the next series: in vitro. Conditions: human, uninfected MT-4 cells, CC50 (nM), same protocol as Test A, CellTiter-Glo. A digest of the protocol: as §1

For the compound `O=C(N[C@@H](Cc1cc(F)cc(F)c1)c1ncccc1-c1ccc(Cl)cc1)C(c1c[nH]c2ccc(F)cc12)C(F)(F)F` (single isomer, unassigned) [Example 36G], in the series with HIV-IIIb, the “% inhibition at 2 μM” value amounted to 0%. The same compound yielded a CC50 in the series on MT-4 cells of 6.93 µM.

Turning to `NC(=O)c1cc(-c2cccnc2[C@H](Cc2cc(F)cc(F)c2)NC(=O)Cn2nc(C(F)(F)F)c3c2[C@H]2C[C@H]2C3)ccc1F` (single isomer, unassigned) [Example 186], the “% inhibition at 2 μM” value in the series on HIV-IIIb turned out to be 80%. In addition, in the series with MT-4 cells, the midpoint of cytotoxicity, the CC50, lay at 16.8 µM.

With `NC(=O)c1cc(-c2cccnc2[C@H](Cc2cc(F)cc(F)c2)NC(=O)Cn2nc(C(F)F)c3c2CC2CC32)ccc1F` (single isomer, unassigned) [Example 249], the “% inhibition at 2 μM” value in the series with HIV-IIIb is 100%. This compound also gave a CC50 with MT-4 cells of 23.4 µM.

In the case of `O=C(Cn1nc(C(F)F)c2c1C1CC1CC2)NC(Cc1cc(F)cc(F)c1)c1ncncc1-c1cnc2[nH]ccc2c1` (single isomer, unassigned) [Example 347], the “% inhibition at 2 μM” value in the series with HIV-IIIb was 1%. The CC50 in the series with MT-4 cells came out at 19.4 µM.

Turning to `O=C(Cn1nc(C(F)F)c2c1C1CC1CC2)NC(Cc1cc(F)cc(F)c1)c1ncncc1-c1cnc2[nH]ccc2c1` (single isomer, unassigned) [Example 348], the “% inhibition at 2 μM” value in the series on HIV-IIIb was found to be 103%. In the series on MT-4 cells, this compound showed a CC50 of 14.2 µM.

On to `CCC(C(=O)N[C@@H](Cc1cc(F)cc(F)c1)c1ncccc1-c1ccc(F)c(C(N)=O)c1)n1nc(C(F)F)cc1C(F)F` (single isomer, unassigned) [Example 484], for which the “% inhibition at 2 μM” value with HIV-IIIb amounted to 25%. In addition, it took 27.4 µM to reach half-maximal cytotoxicity in the series on MT-4 cells (CC50).

`CCCCC(C(=O)N[C@@H](Cc1cc(F)cc(F)c1)c1ncccc1-c1ccc(F)c(C(N)=O)c1)n1ccc(C(F)(F)F)n1` (single isomer, unassigned) [Example 488]: in the series with HIV-IIIb, the “% inhibition at 2 μM” value was 8%. Moreover, the CC50 in the series with MT-4 cells worked out at 12.4 µM.

As to `CCC(C(=O)N[C@@H](Cc1cc(F)cc(F)c1)c1ncccc1-c1ccc(F)c(C(N)=O)c1)n1nc(C(F)(F)F)c2c1CCCC2` (single isomer, unassigned) [Example 531], the “% inhibition at 2 μM” value with HIV-IIIb was determined as 98%. In the series with MT-4 cells, this compound returned a CC50 of 7.4 µM.

Consider `CCC(C(=O)N[C@@H](Cc1cc(F)cc(F)c1)c1ncccc1-c1ccc(F)c(C(N)=O)c1)n1nc(C(F)(F)F)c2c1CCCC2` (single isomer, unassigned) [Example 532], for which the “% inhibition at 2 μM” value in the series with HIV-IIIb amounted to 9%. Also, in the series on MT-4 cells, the CC50 was 12.2 µM.

In the case of `NC(=O)c1cc(-c2cccnc2[C@H](Cc2cc(F)cc(F)c2)NC(=O)C(c2ccccc2)C2CCCC2)ccc1F` (single isomer, unassigned) [Example 552], in the series on HIV-IIIb, the “% inhibition at 2 μM” value was found to be 8%. Moreover, in the series with MT-4 cells, it took 11 µM to reach half-maximal cytotoxicity (CC50).

Take `CCC(C(=O)N[C@@H](Cc1cc(F)cc(F)c1)c1ncccc1-c1ccc(F)c(C(N)=O)c1)n1cc(C(F)(F)F)cn1` (single isomer, unassigned) [Example 566]: the “% inhibition at 2 μM” value with HIV-IIIb is reported as 3%. In addition, the CC50 with MT-4 cells came to 23.7 µM.

In the case of `Cc1cc2ncn(C(CC(F)(F)F)C(=O)N[C@@H](Cc3cc(F)cc(F)c3)c3ncccc3-c3ccc(F)c(C(N)=O)c3)c2cc1C` (single isomer, unassigned) [Example 571], the “% inhibition at 2 μM” value in the series on HIV-IIIb worked out at 2%. The same compound showed a CC50 with MT-4 cells of 34.8 µM.

Turning to `CCC(C(=O)N[C@@H](Cc1cc(F)cc(F)c1)c1ncccc1-c1ccc(F)c(C(N)=O)c1)n1ccc(C(F)(F)F)n1` (single isomer, unassigned) [Example 573], the “% inhibition at 2 μM” value in the series with HIV-IIIb was 18%. In addition, the CC50 with MT-4 cells came out at 30.1 µM.

Take `CC(C)CC(C(=O)N[C@@H](Cc1cc(F)cc(F)c1)c1ncccc1-c1ccc(F)c(C(N)=O)c1)n1ccc(C(F)(F)F)n1` (single isomer, unassigned) [Example 582]: the “% inhibition at 2 μM” value in the series on HIV-IIIb turned out to be 5%. Further, it took 14.4 µM to reach half-maximal cytotoxicity with MT-4 cells (CC50).

Consider `CCC(C(=O)N[C@@H](Cc1cc(F)cc(F)c1)c1ncccc1-c1ccc(F)c(C(N)=O)c1)n1ccnc1C(C)C` (single isomer, unassigned) [Example 586], for which the “% inhibition at 2 μM” value in the series with HIV-IIIb is given as 1%. In the series with MT-4 cells, this compound came in with a CC50 above 53.2 µM.

`CN(C)C(C(=O)N[C@@H](Cc1cc(F)cc(F)c1)c1ncccc1-c1ccc(F)c(C(N)=O)c1)c1ccc(F)cc1` (single isomer, unassigned) [Example 590]: the “% inhibition at 2 μM” value in the series with HIV-IIIb came to 13%. For the same compound, the CC50 in the series on MT-4 cells was determined as 38.6 µM.

In the case of `CC12CCC(c3c(C(F)(F)F)nn(CC(=O)N[C@@H](Cc4cc(F)cc(F)c4)c4ncccc4-c4ccc(F)c(C(N)=O)c4)c31)C2(C)C` (stereo partly drawn) [Example 93B, (S)-5-(2-(2-(3,5-difluorophenyl)-1-(2-(D-4,5,6,7-Tetrahydro-3-trifluoromethyl-7,8,8-trimethyl-1H-4,7-(methano)indazol-1-yl)acetamido)ethyl)pyridin-3-yl)-2-fluorobenzamide], in the series with HIV-IIIb, the “% inhibition at 2 μM” value came to 0%. The same compound yielded a CC50 in the series on MT-4 cells of 8.14 µM.

With `NC(=O)c1cc(-c2cccnc2[C@H](Cc2cc(F)cc(F)c2)NC(=O)Cn2nc(C(F)(F)F)c3c2C(O)C2CC32)ccc1F` (stereo partly drawn) [Example 155, 5-(2-((1S)-2-(3,5-difluorophenyl)-1-(2-(5-hydroxy-3-(trifluoromethyl)-3b,4,4a,5-tetrahydro-1H-cyclopropa[3,4]cyclopenta[1,2-c]pyrazol-1-yl)acetamido)ethyl)pyridin-3-yl)-2-fluorobenzamide], the “% inhibition at 2 μM” value with HIV-IIIb was determined as 97%. The CC50 in the series with MT-4 cells amounted to 37 µM.

Regarding `NC(=O)c1cc(-c2cccnc2[C@H](Cc2cc(F)cc(F)c2)NC(=O)Cn2nc(C(F)(F)F)c3c2C(O)C2CC32)ccc1F` (stereo partly drawn) [Example 156, 5-(2-((1S)-2-(3,5-difluorophenyl)-1-(2-(5-hydroxy-3-(trifluoromethyl)-3b,4,4a,5-tetrahydro-1H-cyclopropa[3,4]cyclopenta[1,2-c]pyrazol-1-yl)acetamido)ethyl)pyridin-3-yl)-2-fluorobenzamide], the “% inhibition at 2 μM” value in the series on HIV-IIIb turned out to be 30%. The compound further registered a CC50 in the series on MT-4 cells of 39.2 µM.

For `NC(=O)c1cc(-c2cccnc2[C@H](Cc2cc(F)cc(F)c2)NC(=O)Cn2nc(C(F)F)c3c2C2CC2C3)ccc1F` (stereo partly drawn) [Example 163C, 5-(2-((1S)-1-(2-(3-(difluoromethyl)-4,4-a,5,5a-tetrahydro-1H-cyclopropa[4,5]cyclopenta[1,2-c]pyrazol-1-yl)acetamido)-2-(3,5-difluorophenyl)ethyl)pyridin-3-yl)-2-fluorobenzamide], the “% inhibition at 2 μM” value with HIV-IIIb is on record as 105%. Further, the midpoint of cytotoxicity in the series with MT-4 cells, the CC50, lay at 27.4 µM.

As for `NC(=O)c1cccc(-c2cccnc2[C@H](Cc2cc(F)cc(F)c2)NC(=O)CC2C(=O)Nc3ccccc32)c1` (stereo partly drawn) [Example 192, 3-(2-((1S)-2-(3,5-difluorophenyl)-1-(2-(2-oxoindolin-3-yl)acetamido)ethyl)pyridin-3-yl)benzamide], the “% inhibition at 2 μM” value in the series on HIV-IIIb turned out to be 2%. The 50% cytotoxic concentration (CC50) in the series with MT-4 cells is 47.6 µM.

`Cc1cc(-c2cccnc2[C@H](Cc2cc(F)cc(F)c2)NC(=O)Cc2c[nH]c3ccc(F)cc23)cnc1F` [Example 399]: the “% inhibition at 2 μM” value in the series on HIV-IIIb is given as 31%. Besides, the CC50 in the series on MT-4 cells was found to be 12.8 µM.

As to `NC(=O)c1cccc(-c2cccnc2[C@H](Cc2cc(F)cc(F)c2)NC(=O)Cc2c[nH]c3ccc(C(F)(F)F)cc23)c1` [Example 596, (S)-3-(2-(2-(3,5-difluorophenyl)-1-(2-(5-(trifluoromethyl)-1H-indol-3-yl)acetamido)ethyl)pyridin-3-yl)benzamide], in the series with HIV-IIIb, the inhibition at 2 µM worked out at 96%. The same compound showed a CC50 at 5 days in the series “in vitro” of 10900 nM.

In the case of `Cc1[nH]c2ccc(F)cc2c1CC(=O)N[C@@H](Cc1cc(F)cc(F)c1)c1ncccc1-c1ccc(Cl)cc1` [Example 597, (S)—N-(1-(3-(4-chlorophenyl)pyridin-2-yl)-2-(3,5-difluorophenyl)ethyl)-2-(5-fluoro-2-methyl-1H-indol-3-yl)acetamide], in the series on HIV-IIIb, the inhibition at 2 µM stood at 89%. The compound further had a CC50 at 5 days in “in vitro” of 8650 nM.

Take `COC1CN(C(=O)c2cc(C(C)C)nn2CC(=O)N[C@@H](Cc2cc(F)cc(F)c2)c2ncccc2-c2ccc(F)c(C(N)=O)c2)C1` [Example 598, (S)-5-(2-(2-(3,5-difluorophenyl)-1-(2-(3-isopropyl-5-(3-methoxyazetidine-1-carbonyl)-1H-pyrazol-1-yl)acetamido)ethyl)pyridin-3-yl)-2-fluorobenzamide]: in the series with HIV-IIIb, the inhibition at 2 µM was 3%. For the same compound, in the series “in vitro”, the CC50 at 5 days was above 53200 nM.

Regarding `NC(=O)c1cc(-c2cccnc2[C@H](Cc2cc(F)cc(F)c2)NC(=O)Cn2c(C(F)(F)F)cc3ccccc32)ccc1F` [Example 599, (S)-5-(2-(2-(3,5-difluorophenyl)-1-(2-(2-(trifluoromethyl)-1H-indol-1-yl)acetamido)ethyl)pyridin-3-yl)-2-fluorobenzamide], the inhibition at 2 µM in the series on HIV-IIIb is 2%. Further, in “in vitro”, the midpoint of cytotoxicity, the CC50 at 5 days, lay at 31600 nM.

Regarding `Cc1nc2n(CC(=O)N[C@@H](Cc3cc(F)cc(F)c3)c3ncccc3-c3ccc(F)c(C(N)=O)c3)c3ccccc3n2n1` [Example 600, (S)-5-(2-(2-(3,5-difluorophenyl)-1-(2-(2-methyl-4H-benzo[4,5]imidazo[1,2-b][1,2,4]triazol-4-yl)acetamido)ethyl)pyridin-3-yl)-2-fluorobenzamide], the inhibition at 2 µM in the series on HIV-IIIb stood at 9%. The CC50 at 5 days in the series “in vitro” was above 53200 nM.

In the case of `COc1cccc(CC(=O)N[C@@H](Cc2cc(F)cc(F)c2)c2ncccc2-c2cccc(C(N)=O)c2)c1` [Example 601, (S)-3-(2-(2-(3,5-difluorophenyl)-1-(2-(3-methoxyphenyl)acetamido)ethyl)pyridin-3-yl)benzamide], the inhibition at 2 µM in the series with HIV-IIIb was found to be 22%. For the same compound, the CC50 at 5 days in the series “in vitro” was 41900 nM.
